Reference: patent publication US4804751A, “Polycyclic hydrocarbon succinimides with psychotropic activity” (American Home Products Corporation, priority 1987, dated 1989)
Where a name gives a salt, the structure may show the parent alone. Read-outs that look alike come from different tables or passages of the source.

Legend:
[1] = molecular target: limbic D-2 dopamine receptor (Rattus norvegicus, UniProt P61169); experiment: biochemical; details: read-out: Limbic D-2 Binding, inhibition
[2] = molecular target: T1, 5-HT-1A serotonin receptor (Rattus norvegicus, UniProt P19327); experiment: ex vivo inhibition of 5-HT-1A serotonin receptor binding (3H-8-OH-DPAT, hippocampal membranes)
T1 construct: Hippocampal tissue is dissected and homogenized on ice in 40 vols of buffer; from tissue; host or cells: rat hippocampus, washed membrane homogenate
T1 sequence (P19327 1-422): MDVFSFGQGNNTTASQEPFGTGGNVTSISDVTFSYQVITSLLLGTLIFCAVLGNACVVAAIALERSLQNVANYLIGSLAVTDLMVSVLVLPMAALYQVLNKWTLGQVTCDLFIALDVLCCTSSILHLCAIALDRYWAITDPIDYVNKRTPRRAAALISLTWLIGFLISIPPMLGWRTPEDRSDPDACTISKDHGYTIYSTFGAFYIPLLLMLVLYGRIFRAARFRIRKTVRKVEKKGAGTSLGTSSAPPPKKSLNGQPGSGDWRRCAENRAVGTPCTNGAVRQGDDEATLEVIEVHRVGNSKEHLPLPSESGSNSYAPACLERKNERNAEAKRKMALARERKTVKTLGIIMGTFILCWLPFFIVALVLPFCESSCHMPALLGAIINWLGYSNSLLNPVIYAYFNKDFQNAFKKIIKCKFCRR
Procedure: The assay is carried out as follows:
Several groups of rats (4-6 rats/group) are injected with test compound or the appropriate vehicle. Thirty minutes later, unless otherwise noted, rats are decapitated and their brains removed. Various brain regions are dissected and rapidly frozen and maintained at -70° C. until used.
The homogenate is then centrifuged at 20,000 rpm (RC5-B; 50,000 g) and the supernatant discarded. […] The pellet is then resuspended in 100 vols of buffer B (50 mM Tris HCl, pH=7.7 containing 0.1% ascorbate, 10 μM pargyline and 4 mM CaCl2) and sonicated. An aliquot is taken for protein determination by the Lowry method and the remainder stored frozen at -70° C. until used.
Specific binding obtained in vehicle-treated rats is compared to that obtained in animals receiving a single or various doses of test compound and expressed as percent of control.

[3] = test system: conditioned avoidance responding in rats; experiment: conditioned avoidance (shelf-jump response) test; details: i.p.; Table 1
Procedure: A test designed to determine the potential antipsychotic activity of the compounds of the invention is the conditioned avoidance (shelf-jump response) test.
This test is carried out as follows:
Male CD rats (Charles River) maintained at approximately 400-450 gm body weight are used. […] A moveable wall, controlled by a motor, determines whether the rat has access to the shelf at any time during the experiment. The experimental chamber also contains a house light and sonalert. A steel grid floor in the main chamber is wired for presentation of electric shock. Each trial consists of a fifteen-second warning tone (conditioned stimulus), continuing for an additional fifteen seconds accompanied by electric shock (unconditioned stimulus). A response (jumping onto the exposed shelf of the upper chamber) occurring during the initial fifteen-second warning tone is considered an avoidance response, while a response occurring during shock delivery is considered an escape response. Trials are presented on a fixed interval schedule of one minute. The session consists of thirty-six trials. Animals are run twice weekly with control sessions always preceding a drug run, and with at least one day intervening. Compounds are administered i.p. or p.o. at appropriate pre-treatment times to a minimum of five rats at each dose level over a range of doses.
The following experimental parameters are recorded by computer: (1) the number of avoidance responses, (2) the number of escape responses, and (3) the number of trials in which no response occurred.
Response counts are summed over all subjects at a given dose. […] This number is expressed as a percentage of the total trials. Control performance is arbitrarily assigned a value of 100% for avoidance and the dose calculated to produce a 50% block in avoidance responding (AB50) is obtained from a dose-effect regression line fitted by the method of least squares. Potential anti-psychotic compounds suppress avoidance responding and increase escape responding.

[4] = Table 3, rat hippocampal tissue, 3H-8-OH-DPAT, read-out: Inhibition Constant (Ki)

Chain of limbic D-2 dopamine receptor (P61169 whole entry): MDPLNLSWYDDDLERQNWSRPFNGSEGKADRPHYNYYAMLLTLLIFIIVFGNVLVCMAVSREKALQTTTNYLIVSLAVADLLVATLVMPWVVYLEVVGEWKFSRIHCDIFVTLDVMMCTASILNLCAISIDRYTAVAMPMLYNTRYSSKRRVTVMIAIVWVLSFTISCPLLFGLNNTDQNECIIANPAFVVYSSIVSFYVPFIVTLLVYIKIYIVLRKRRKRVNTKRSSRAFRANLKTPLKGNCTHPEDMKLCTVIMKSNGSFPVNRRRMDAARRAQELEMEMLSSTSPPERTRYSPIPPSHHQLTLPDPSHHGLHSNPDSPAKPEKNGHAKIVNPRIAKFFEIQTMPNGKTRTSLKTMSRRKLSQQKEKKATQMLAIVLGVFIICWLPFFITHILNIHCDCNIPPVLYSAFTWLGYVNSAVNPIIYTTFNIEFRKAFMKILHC

O=C1N(CCCCN2CCN(c3ncccn3)CC2)C(=O)C23C4C=CC(C4)C12C1C=CC3C1 (centres unmarked) [Example 1, 1,4,5,8-Tetrahydro-10-[4-[4-(2-pyrimidinyl-1-piperazinyl]butyl]-4a,8a-(methaniminomethano)-1,4:5,8-dimethanonaphthalene-9,11-dione, dihydrochloride, hemihydrate] was tested, and the inhibition at 1 µM [1] was 53%, the Ki [2, 4] was 14 nM and the Active at [3] was 40 mg/kg.
Work on O=C1N(CCCCN2CCN(c3cnccn3)CC2)C(=O)C23C4C=CC(C4)C12C1C=CC3C1 (centres unmarked) [Example 3, 1,4,5,8-Tetrahydro-10-[4-[4-(2-pyrazinyl)-1-piperazinyl]butyl]-4a,8a-(methaniminomethano)-1,4:5,8-dimethanonaphthalene-9,11-dione, dihydrochloride, sesquihydrate] yielded an inhibition at 1 µM [1] of 63%, a Ki [2] of 12 nM and an Active at [3] of 40 mg/kg.
O=C1N(CCCCN2CCN(c3ncccn3)CC2)C(=O)C23C4CCC(C4)C12C1CCC3C1 (centres unmarked) [Example 4, Octahydro-10-[4-[4-(2-pyrimdinyl)-1-piperazinyl]butyl]-4a,8a-(methaniminomethano)-1,4:5,8-dimethanonaphthalene-9,11-dione, dihydrochloride] gave a Ki [2, 4] of 7 nM and an Active at [3] of 40 mg/kg.
